Patent publication US11912703B2, “6-azaindole compounds” (BRISTOL-MYERS SQUIBB COMPANY, priority 2017, dated 2024)
Where two headings read alike, the source gives them in different places.

Tests used:
human TLR7 = human TLR7 (Homo sapiens (Human), UniProt Q9NYK1); test: TLR7 inhibition reporter assay (HEK-Blue SEAP); format: cell-based; conditions: HEK-Blue cells overexpressing human TLR7, gardiquimod 7.5 μM stimulation
Procedure: HEK-Blue™-cells (Invivogen) overexpressing human TLR7, TLR8 or TLR9 receptors were used for screening inhibitors of these receptors using an inducible SEAP (secreted embryonic alkaline phosphatase) reporter gene under the control of the IFN-β minimal promoter fused to five NF-κB and AP-1-binding sites. Briefly, cells are seeded into Greiner 384 well plates (15000 cells per well for TLR7, 20,000 for TLR8 and 25,000 for TLR9) and then treated with test compounds in DMSO to yield a final dose response concentration range of 0.05 nM-50 μM. After a 30 minute compound pre-treatment at room temperature, the cells are then stimulated with a TLR7 ligand (gardiquimod at a final concentration of 7.5 μM), TLR8 ligand (R848 at a final concentration of 15.9 μM) or TLR9 ligand (ODN2006 at a final concentration of 5 nM) to activate NF-κB and AP-1 which induce the production of SEAP. After a 22 hour incubation at 37° C., 500 CO2, SEAP levels are determined with the addition of HEK-Blue™ Detection reagent (Invivogen), a cell culture medium that allows for detection of SEAP, according to manufacturer's specifications.

human TLR8 = human TLR8 (Homo sapiens (Human), UniProt Q9NR97); test: TLR8 inhibition reporter assay (HEK-Blue SEAP);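 further: SEAP driven by IFN-β minimal promoter with five NF-κB and AP-1 sites, compounds tested 0.05 nM to 50 µM, 22 h incubation, inhibition relative to agonist plus DMSO wells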
Chain of human TLR8 (Q9NR97 27-1041): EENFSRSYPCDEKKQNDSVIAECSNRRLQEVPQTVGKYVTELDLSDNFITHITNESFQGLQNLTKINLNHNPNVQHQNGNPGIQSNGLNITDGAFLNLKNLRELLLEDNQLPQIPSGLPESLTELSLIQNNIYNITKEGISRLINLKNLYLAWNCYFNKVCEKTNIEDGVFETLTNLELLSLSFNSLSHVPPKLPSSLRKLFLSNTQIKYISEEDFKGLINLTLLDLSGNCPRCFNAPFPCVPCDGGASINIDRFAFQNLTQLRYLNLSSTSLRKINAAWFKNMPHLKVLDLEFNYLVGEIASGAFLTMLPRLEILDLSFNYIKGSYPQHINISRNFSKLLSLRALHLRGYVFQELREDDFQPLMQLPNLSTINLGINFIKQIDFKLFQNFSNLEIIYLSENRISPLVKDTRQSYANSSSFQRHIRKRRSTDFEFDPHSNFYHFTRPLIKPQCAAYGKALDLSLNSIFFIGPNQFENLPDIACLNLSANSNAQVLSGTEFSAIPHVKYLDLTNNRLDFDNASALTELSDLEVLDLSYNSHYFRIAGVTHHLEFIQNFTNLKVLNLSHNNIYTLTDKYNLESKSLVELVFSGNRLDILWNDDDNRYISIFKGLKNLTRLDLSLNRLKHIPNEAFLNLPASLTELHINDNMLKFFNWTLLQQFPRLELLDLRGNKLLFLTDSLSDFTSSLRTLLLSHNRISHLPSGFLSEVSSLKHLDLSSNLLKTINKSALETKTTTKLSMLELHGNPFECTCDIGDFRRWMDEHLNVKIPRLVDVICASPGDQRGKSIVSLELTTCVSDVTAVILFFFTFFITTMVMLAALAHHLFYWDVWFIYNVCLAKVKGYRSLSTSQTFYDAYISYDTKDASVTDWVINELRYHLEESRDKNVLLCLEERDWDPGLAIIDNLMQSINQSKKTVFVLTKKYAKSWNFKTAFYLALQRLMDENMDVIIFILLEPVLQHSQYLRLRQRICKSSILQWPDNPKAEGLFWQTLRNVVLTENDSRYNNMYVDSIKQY

human TLR9 = human TLR9 (Homo sapiens (Human), UniProt Q9NR96); test: TLR9 inhibition reporter assay (HEK-Blue SEAP);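 further: SEAP driven by IFN-β minimal promoter carrying five NF-κB and AP-1 sites, 22 h at 37 °C, compounds 0.05 nM–50 µM, inhibition scaled between agonist-plus-DMSO and reference-inhibitor wells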
Chain of human TLR9 (Q9NR96 26-1032): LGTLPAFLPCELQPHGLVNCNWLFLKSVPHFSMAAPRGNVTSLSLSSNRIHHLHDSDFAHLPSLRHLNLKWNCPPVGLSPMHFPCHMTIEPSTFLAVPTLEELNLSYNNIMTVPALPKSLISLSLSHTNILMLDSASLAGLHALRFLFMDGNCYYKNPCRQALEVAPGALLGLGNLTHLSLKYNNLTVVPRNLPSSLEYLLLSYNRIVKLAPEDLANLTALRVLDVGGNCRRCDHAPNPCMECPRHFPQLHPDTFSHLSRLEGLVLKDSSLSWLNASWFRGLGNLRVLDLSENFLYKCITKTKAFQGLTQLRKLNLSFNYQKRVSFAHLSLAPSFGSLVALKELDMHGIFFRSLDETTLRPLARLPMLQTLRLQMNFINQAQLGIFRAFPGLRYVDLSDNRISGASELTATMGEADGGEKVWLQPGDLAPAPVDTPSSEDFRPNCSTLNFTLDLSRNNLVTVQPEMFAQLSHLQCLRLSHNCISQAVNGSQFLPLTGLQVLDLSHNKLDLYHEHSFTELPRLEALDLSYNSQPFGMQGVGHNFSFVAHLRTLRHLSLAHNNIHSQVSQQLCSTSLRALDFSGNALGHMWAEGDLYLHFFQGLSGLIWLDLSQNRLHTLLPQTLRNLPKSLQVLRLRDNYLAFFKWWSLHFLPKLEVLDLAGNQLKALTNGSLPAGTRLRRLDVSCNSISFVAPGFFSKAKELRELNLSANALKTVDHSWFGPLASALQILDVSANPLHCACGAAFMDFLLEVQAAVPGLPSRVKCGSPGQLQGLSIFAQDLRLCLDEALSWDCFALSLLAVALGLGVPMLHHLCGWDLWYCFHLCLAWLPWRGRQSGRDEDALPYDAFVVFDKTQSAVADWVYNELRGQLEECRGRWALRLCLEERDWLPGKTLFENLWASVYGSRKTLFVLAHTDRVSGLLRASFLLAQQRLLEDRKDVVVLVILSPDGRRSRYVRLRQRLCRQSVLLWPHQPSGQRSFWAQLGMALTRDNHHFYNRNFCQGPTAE

[1] = read-out: TLR8 IC50; HEK-Blue cells overexpressing human TLR8; R848 15.9 μM stimulation; SEAP reporter
[2] = read-out: TLR9 IC50; HEK-Blue cells overexpressing human TLR9; ODN2006 5 nM stimulation; SEAP reporter
[3] = read-out: TLR8 IC50; HEK-Blue cells overexpressing human TLR8, R848 15.9 μM stimulation, SEAP reporter
[4] = read-out: TLR9 IC50; HEK-Blue cells overexpressing human TLR9, ODN2006 5 nM stimulation, SEAP reporter

Chain of human TLR7 (Q9NYK1 27-1049): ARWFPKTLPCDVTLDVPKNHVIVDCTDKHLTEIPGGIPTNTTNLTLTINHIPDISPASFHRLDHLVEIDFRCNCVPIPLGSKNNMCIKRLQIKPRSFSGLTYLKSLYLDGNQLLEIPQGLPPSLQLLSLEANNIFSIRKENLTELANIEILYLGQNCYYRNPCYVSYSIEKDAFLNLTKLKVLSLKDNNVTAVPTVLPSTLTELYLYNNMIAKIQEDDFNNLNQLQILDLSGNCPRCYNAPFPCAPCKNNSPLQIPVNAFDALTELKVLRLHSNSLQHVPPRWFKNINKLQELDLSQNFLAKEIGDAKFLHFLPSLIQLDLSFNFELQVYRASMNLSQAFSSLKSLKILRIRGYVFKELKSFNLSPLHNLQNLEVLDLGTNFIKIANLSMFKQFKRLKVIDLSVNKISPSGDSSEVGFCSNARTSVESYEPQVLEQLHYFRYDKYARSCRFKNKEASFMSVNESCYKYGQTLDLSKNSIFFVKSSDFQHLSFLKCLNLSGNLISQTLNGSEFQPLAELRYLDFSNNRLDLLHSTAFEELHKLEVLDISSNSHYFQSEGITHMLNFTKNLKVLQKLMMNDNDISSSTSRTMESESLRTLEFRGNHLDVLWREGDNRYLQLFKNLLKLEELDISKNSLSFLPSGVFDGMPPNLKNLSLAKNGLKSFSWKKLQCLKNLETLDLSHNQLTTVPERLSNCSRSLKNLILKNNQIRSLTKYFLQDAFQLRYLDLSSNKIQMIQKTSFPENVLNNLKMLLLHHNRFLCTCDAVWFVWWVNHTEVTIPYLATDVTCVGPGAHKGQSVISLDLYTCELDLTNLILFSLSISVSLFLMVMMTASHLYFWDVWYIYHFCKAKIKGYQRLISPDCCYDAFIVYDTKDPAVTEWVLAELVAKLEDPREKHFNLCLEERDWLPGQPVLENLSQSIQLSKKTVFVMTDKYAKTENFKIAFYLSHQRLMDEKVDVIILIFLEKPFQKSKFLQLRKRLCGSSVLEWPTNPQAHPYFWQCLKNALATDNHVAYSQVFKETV

Compound | IC50 (human TLR7) [nM] | IC50 (human TLR8; [1]) [nM] | IC50 (human TLR9; [2]) [nM] | IC50 (human TLR8; [3]) [nM] | IC50 (human TLR9; [4]) [nM]
COCCN1CCC(c2ncc3[nH]c(-c4cc(C)nc(C)c4)c(C(C)C)c3c2F)CC1 [Example 216] | 14 | 12 | 4650 |  | 
CNC(=O)CN(C)C1CCN(c2ncc3[nH]c(-c4cc(C)c5ncnn5c4)c(C(C)C)c3c2F)CC1 [Example 259] | 2.1 |  |  | 2.6 | 16800
COc1cc(-c2[nH]c3cnc(N4CCN(CC(C)C)C[C@H]4C)c(F)c3c2C(C)C)cn2ncnc12 [Example 453] | 16 | 34 | > 50000 |  | 
COc1cc(-c2[nH]c3cnc(N4CCC(NC5CCOCC5)CC4)cc3c2C(C)C)cn2ncnc12 [Example 321] | 2.8 |  |  | 0.64 | 1010
COc1cc(-c2[nH]c3cnc(N4CCC(N5CCOCC5)CC4)c(C)c3c2C(C)C)cn2ncnc12 [Example 278] | 0.79 |  |  | 0.58 | 1100
CCN(C)C1CCC(c2cc3c(C(C)C)c(-c4cc(OC)c5ncnn5c4)[nH]c3cn2)C1 (stereo not drawn) [Example 249] | 12 |  |  | 12 | 1450
COc1cc(-c2[nH]c3cnc(N4CC5(CN(CC(C)C)C5)C4)c(F)c3c2C(C)C)cn2ncnc12 [Example 372] | 7.9 |  |  | 440 | 5440
Cc1c(-c2[nH]c3cnc(C4CCC(NCC5(C)COC5)CC4)c(C)c3c2C(C)C)cn2ncnc2c1C (stereo not drawn) [Example 203] | 27 |  |  | 9.3 | 513
COc1cc(-c2[nH]c3cnc(N4CCN(C(=O)CN(C)C)CC4)c(C)c3c2C(C)C)cn2ncnc12 [Example 154] | 4 |  |  | 4.4 | 1220
Cc1c(-c2[nH]c3cnc(C4CCC(NC5CCOCC5)CC4)c(F)c3c2C(C)C)cn2ncnc2c1C (stereo not drawn) [Example 232] | 11 | 3.2 | 4500 |  | 
Cc1c(-c2[nH]c3cnc(C4CCC(NC5COC5)CC4)c(F)c3c2C(C)C)cn2ncnc2c1C (stereo not drawn) [Example 174] | 0.78 |  |  | 0.67 | 7720
COc1cc(-c2[nH]c3cnc(N4CCC(NCC(N)=O)CC4)cc3c2C(C)C)cn2ncnc12 [Example 345] | 11 |  |  | 13 | 712
Cc1c(-c2[nH]c3cnc(C4CCC(NC[C@@H](F)C(C)(C)O)CC4)c(F)c3c2C(C)C)cn2ncnc2c1C (stereo partly drawn) [Example 175] | 23 |  |  | 6.4 | 7940
Cc1cc(-c2[nH]c3cnc(C4CCC(NC(C)C)CC4)c(F)c3c2C(C)C)cn2ncnc12 (stereo not drawn) [Example 230] | 0.41 | 0.77 | 1700 |  | 
COCCN1CCN(c2ncc3[nH]c(-c4cn5ncnc5c(C)c4C)c(C(C)C)c3c2F)[C@H](C)C1 [Example 472] | 5.3 | 0.92 | 46600 |  | 
Cc1c(-c2[nH]c3cnc(N4CCN(C5CCOCC5)CC4)c(C)c3c2C(C)C)cn2ncnc2c1C [Example 418] | 19 |  |  | 2.2 | 6010
COc1cc(-c2[nH]c3cnc(C4CCC(NC5COC5)CC4)cc3c2C(C)C)cn2ncnc12 (stereo not drawn) [Example 308] | 7.9 |  |  | 25 | 159
CNC(=O)CN1CCC(c2cc3c(C(C)C)c(-c4cc(C)c5ncnn5c4)[nH]c3cn2)CC1 [Example 287] | 2 |  |  | 16 | 718
COc1cc(-c2[nH]c3cnc(N4CC5(C4)CN(C4COC4)C5)c(F)c3c2C(C)C)cn2ncnc12 [Example 369, 6-(4-fluoro-3-isopropyl-5-(6-(oxetan-3-yl)-2,6-diazaspiro[3.3]heptan-2-yl)-1H-pyrrolo[2,3-c]pyridin-2-yl)-8-methoxy-[1,2,4]triazolo[1,5-a]pyridine] | 27 |  |  | 23 | > 50000
COc1cc(-c2[nH]c3cnc(N4CCN(CCS(C)(=O)=O)C[C@H]4C)c(F)c3c2C(C)C)cn2ncnc12 [Example 450] | 12 | 39 | > 50000 |  | 
CCCN1CCN(c2ncc3[nH]c(-c4cn5ncnc5c(C)c4C)c(C(C)C)c3c2F)[C@H](C)C1 [Example 455] | 0.59 | 0.17 | 14600 |  | 
COc1cc(-c2[nH]c3cnc(C4CCN(C(C)C)CC4)c(F)c3c2C(C)C)cn2ncnc12 [Example 18] | 0.76 |  |  | 2.6 | 1790
Cc1cc(-c2[nH]c3cnc(C4CCC(NC5(C)COC5)CC4)c(F)c3c2C(C)C)cn2ncnc12 (stereo not drawn) [Example 81] | 0.15 |  |  | 0.61 | 2170
Cc1c(-c2[nH]c3cnc(C4CCC(NC5CCOC5)CC4)cc3c2C(C)C)cn2ncnc2c1C (stereo not drawn) [Example 349] | 1.1 |  |  | 3.6 | 344
Cc1cc(-c2[nH]c3cnc(C4CCN(C5COC5)CC4)c(F)c3c2C(C)C)cc(C)n1 [Example 251] | 15 |  |  | 23 | 14800
CNCC(=O)N1CCC(c2ncc3[nH]c(-c4cc(C)c5ncnn5c4)c(C(C)C)c3c2F)CC1 [Example 39] | 6.4 |  |  | 16 | 5530

Continued by falling IC50 (human TLR7), values first:

IC50 (human TLR7) [nM] | IC50 (human TLR8; [1]) [nM] | IC50 (human TLR9; [2]) [nM] | IC50 (human TLR8; [3]) [nM] | IC50 (human TLR9; [4]) [nM] | Compound
32 |  |  | 1.4 | 5900 | Cc1c(-c2[nH]c3cnc(N4CCN(CC5CCOCC5)CC4)c(C)c3c2C(C)C)cn2ncnc2c1C [Example 419]
16 |  |  | 61 | 12400 | CCN1CC2(C1)CN(c1ncc3[nH]c(-c4cn5ncnc5c(C)c4C)c(C(C)C)c3c1F)C2 [Example 408]
10 |  |  | 1.7 | 1730 | Cc1c(-c2[nH]c3cnc(N4CCN(C(=O)CN(C)C)CC4)c(C)c3c2C(C)C)cn2ncnc2c1C [Example 416, 1-(4-(2-(7,8-dimethyl-[1,2,4]triazolo[1,5-a]pyridin-6-yl)-3-isopropyl-4-methyl-1H-pyrrolo[2,3-c]pyridin-5-yl)piperazin-1-yl)-2-(dimethylamino)ethan-1-one]
9.9 |  |  | 11 | 2580 | COc1cc(-c2[nH]c3cnc(N4CC5(C4)CN(C4CCC4)C5)c(F)c3c2C(C)C)cn2ncnc12 [Example 381]
8.4 |  |  | 4.8 | 937 | Cc1c(-c2[nH]c3cnc(N4CC5(C4)CN(C4CCN(C(C)C)CC4)C5)c(F)c3c2C(C)C)cn2ncnc2c1C [Example 406]
7.1 |  |  | 4.3 | 11200 | COc1cc(-c2[nH]c3cnc(N4CCN(C(=O)CN(C)C)C[C@H]4C)c(F)c3c2C(C)C)cn2ncnc12 [Example 439]
6.2 |  |  | 4.6 | 1800 | Cc1cc(-c2[nH]c3cnc(C4CCC(NCC(C)(C)O)CC4)c(F)c3c2C(C)C)cn2ncnc12 (stereo not drawn) [Example 164]
5 |  |  | 7.9 | 11400 | CNC(=O)CN(C)C1CCC(c2ncc3[nH]c(-c4cc(OC)c5ncnn5c4)c(C(C)C)c3c2F)CC1 (stereo not drawn) [Example 131]
4.3 |  |  | 42 | 669 | Cc1c(-c2[nH]c3cnc(C4CCC(N5CCC5)CC4)cc3c2C(C)C)cn2ncnc2c1C (stereo not drawn) [Example 335]
4 |  |  | 11 | 7320 | COc1cc(-c2[nH]c3cnc(N4CCN(C5CCC5)C[C@H]4C)c(F)c3c2C(C)C)cn2ncnc12 [Example 441]
3.8 |  |  | 8.3 | 224 | COc1cc(-c2[nH]c3cnc(C4CCC(NC5CCOC5)CC4)cc3c2C(C)C)cn2ncnc12 (stereo not drawn) [Example 342]
3.5 |  |  | 0.32 | 8180 | Cc1c(-c2[nH]c3cnc(N4CCN(C5CCOCC5)CC4)c(F)c3c2C(C)C)cn2ncnc2c1C [Example 431]
3.1 |  |  | 2 | 6820 | Cc1c(-c2[nH]c3cnc(N4CCN(C(=O)CN(C)C)CC4)c(F)c3c2C(C)C)cn2ncnc2c1C [Example 422]
3 |  |  | 0.32 | 6910 | CCN1CCN(c2ncc3[nH]c(-c4cn5ncnc5c(C)c4C)c(C(C)C)c3c2F)CC1 [Example 433]
2.9 |  |  | 0.27 | 2420 | COc1cc(-c2[nH]c3cnc(N4CCC(NC(C)C(C)C)CC4)cc3c2C(C)C)cn2ncnc12 (stereo not drawn) [Example 313]
2.5 |  |  | 4.3 | 6550 | CNC(=O)CN1CCC(c2ncc3[nH]c(-c4cc(OC)c5ncnn5c4)c(C(C)C)c3c2F)CC1 [Example 20]
2.2 |  |  | 5.6 | 3320 | Cc1cc(-c2[nH]c3cnc(C4CCN(C(=O)CN(C)C)CC4)c(F)c3c2C(C)C)cn2ncnc12 [Example 65]
1.4 |  |  | 1.2 | 15400 | Cc1cc(-c2[nH]c3cnc(N4CCC(N(C)C)CC4)c(F)c3c2C(C)C)cn2ncnc12 [Example 256]
1.3 |  |  | 1.6 | 1870 | Cc1c(N2CCC(N3CCN(S(C)(=O)=O)CC3)CC2)ncc2[nH]c(-c3cc(C)c4ncnn4c3)c(C(C)C)c12 [Example 285]
0.76 |  |  | 0.83 | 1010 | Cc1c(-c2[nH]c3cnc(C4CCC(N5CC6(COC6)C5)CC4)c(F)c3c2C(C)C)cn2ncnc2c1C (stereo not drawn) [Example 50]
0.75 |  |  | 0.15 | 5900 | Cc1cc(-c2[nH]c3cnc(N4CCC(NCC5(C)COC5)CC4)c(F)c3c2C(C)C)cn2ncnc12 [Example 129]
0.74 | 0.35 | 4540 |  |  | Cc1cc(-c2[nH]c3cnc(N4CCC(NC5CCOCC5)CC4)c(F)c3c2C(C)C)cn2ncnc12 [Example 220]
